Reference: the NIST ThermoML archive (doi:10.1021/je100715x)
Numbers after ± are expanded uncertainties.

Columns and labels:
[1] = xn = mol fraction of the nth substance listed; details: 101 kPa, Liquid; for viscosity: Capillary tube (Ostwald / Ubbelohde) method; for mass density: Vibrating tube method
[2] = refractive index (Na D-line) (dimensionless); xn = mol fraction of the nth substance listed; details: 101 kPa, Liquid, Standard Abbe refractometry

Question: Which results are given for CCOC(=O)C(=O)OCC [diethyl ethanedioate] + CC(=O)c1ccccc1?
Answer: viscosity ([1]; 303.15 K, x1 = 0.0875): 1.557 ± 0.02 mPa·s; viscosity ([1]; 303.15 K, x1 = 0.1478): 1.578 ± 0.021 mPa·s; viscosity ([1]; 303.15 K, x1 = 0.2538): 1.61 ± 0.021 mPa·s; viscosity ([1]; 303.15 K, x1 = 0.3443): 1.628 ± 0.021 mPa·s; viscosity ([1]; 303.15 K, x1 = 0.4591): 1.645 ± 0.022 mPa·s; viscosity ([1]; 303.15 K, x1 = 0.5501): 1.655 ± 0.022 mPa·s; viscosity ([1]; 303.15 K, x1 = 0.6601): 1.657 ± 0.022 mPa·s; viscosity ([1]; 303.15 K, x1 = 0.7601): 1.654 ± 0.022 mPa·s; viscosity ([1]; 303.15 K, x1 = 0.8846): 1.648 ± 0.021 mPa·s; viscosity ([1]; 303.15 K, x1 = 0.95): 1.635 ± 0.021 mPa·s; mass density ([1]; 303.15 K, x1 = 0.0875): 1024.1 ± 0.3 kg/m3; mass density ([1]; 303.15 K, x1 = 0.1478): 1026.7 ± 0.3 kg/m3; mass density ([1]; 303.15 K, x1 = 0.2538): 1031.2 ± 0.4 kg/m3; mass density ([1]; 303.15 K, x1 = 0.3443): 1034.9 ± 0.4 kg/m3; mass density ([1]; 303.15 K, x1 = 0.4591): 1039.9 ± 0.4 kg/m3; mass density ([1]; 303.15 K, x1 = 0.5501): 1044 ± 0.4 kg/m3; mass density ([1]; 303.15 K, x1 = 0.6601): 1049.3 ± 0.4 kg/m3; mass density ([1]; 303.15 K, x1 = 0.7601): 1054.3 ± 0.4 kg/m3; mass density ([1]; 303.15 K, x1 = 0.8846): 1060.6 ± 0.4 kg/m3; mass density ([1]; 303.15 K, x1 = 0.95): 1063.8 ± 0.4 kg/m3; viscosity ([1]; 308.15 K, x1 = 0.0875): 1.405 ± 0.018 mPa·s; viscosity ([1]; 308.15 K, x1 = 0.1478): 1.418 ± 0.018 mPa·s; viscosity ([1]; 308.15 K, x1 = 0.2538): 1.439 ± 0.019 mPa·s; viscosity ([1]; 308.15 K, x1 = 0.3443): 1.454 ± 0.019 mPa·s; viscosity ([1]; 308.15 K, x1 = 0.4591): 1.467 ± 0.019 mPa·s; viscosity ([1]; 308.15 K, x1 = 0.5501): 1.477 ± 0.019 mPa·s; viscosity ([1]; 308.15 K, x1 = 0.6601): 1.485 ± 0.019 mPa·s; viscosity ([1]; 308.15 K, x1 = 0.7601): 1.487 ± 0.019 mPa·s; viscosity ([1]; 308.15 K, x1 = 0.8846): 1.489 ± 0.019 mPa·s; viscosity ([1]; 308.15 K, x1 = 0.95): 1.49 ± 0.019 mPa·s; mass density ([1]; 308.15 K, x1 = 0.0875): 1021 ± 0.3 kg/m3; mass density ([1]; 308.15 K, x1 = 0.1478): 1023.6 ± 0.4 kg/m3; mass density ([1]; 308.15 K, x1 = 0.2538): 1027.9 ± 0.4 kg/m3; mass density ([1]; 308.15 K, x1 = 0.3443): 1031.5 ± 0.4 kg/m3; mass density ([1]; 308.15 K, x1 = 0.4591): 1036.2 ± 0.4 kg/m3; mass density ([1]; 308.15 K, x1 = 0.5501): 1040.1 ± 0.4 kg/m3; mass density ([1]; 308.15 K, x1 = 0.6601): 1045.2 ± 0.4 kg/m3; mass density ([1]; 308.15 K, x1 = 0.7601): 1049.8 ± 0.4 kg/m3; mass density ([1]; 308.15 K, x1 = 0.8846): 1055.6 ± 0.4 kg/m3; mass density ([1]; 308.15 K, x1 = 0.95): 1058.5 ± 0.4 kg/m3; viscosity ([1]; 313.15 K, x1 = 0.0875): 1.308 ± 0.017 mPa·s; viscosity ([1]; 313.15 K, x1 = 0.1478): 1.317 ± 0.017 mPa·s; viscosity ([1]; 313.15 K, x1 = 0.2538): 1.333 ± 0.017 mPa·s; viscosity ([1]; 313.15 K, x1 = 0.3443): 1.344 ± 0.017 mPa·s; viscosity ([1]; 313.15 K, x1 = 0.4591): 1.355 ± 0.017 mPa·s; viscosity ([1]; 313.15 K, x1 = 0.5501): 1.362 ± 0.018 mPa·s; viscosity ([1]; 313.15 K, x1 = 0.6601): 1.366 ± 0.018 mPa·s; viscosity ([1]; 313.15 K, x1 = 0.7601): 1.37 ± 0.018 mPa·s; viscosity ([1]; 313.15 K, x1 = 0.8846): 1.373 ± 0.018 mPa·s; viscosity ([1]; 313.15 K, x1 = 0.95): 1.375 ± 0.018 mPa·s; mass density ([1]; 313.15 K, x1 = 0.0875): 1017.4 ± 0.3 kg/m3; mass density ([1]; 313.15 K, x1 = 0.1478): 1019.9 ± 0.4 kg/m3; mass density ([1]; 313.15 K, x1 = 0.2538): 1024 ± 0.4 kg/m3; mass density ([1]; 313.15 K, x1 = 0.3443): 1027.5 ± 0.4 kg/m3; mass density ([1]; 313.15 K, x1 = 0.4591): 1032 ± 0.4 kg/m3; mass density ([1]; 313.15 K, x1 = 0.5501): 1035.7 ± 0.4 kg/m3; mass density ([1]; 313.15 K, x1 = 0.6601): 1040.2 ± 0.4 kg/m3; mass density ([1]; 313.15 K, x1 = 0.7601): 1044.5 ± 0.4 kg/m3; mass density ([1]; 313.15 K, x1 = 0.8846): 1049.9 ± 0.4 kg/m3; mass density ([1]; 313.15 K, x1 = 0.95): 1052.5 ± 0.4 kg/m3; refractive index ([2]; 303.15 K, x1 = 0.0875): 1.5171 ± 0.0004; refractive index ([2]; 303.15 K, x1 = 0.1478): 1.5087 ± 0.0004; refractive index ([2]; 303.15 K, x1 = 0.2538): 1.4945 ± 0.0004; refractive index ([2]; 303.15 K, x1 = 0.3443): 1.4826 ± 0.0004; refractive index ([2]; 303.15 K, x1 = 0.4591): 1.4685 ± 0.0004; refractive index ([2]; 303.15 K, x1 = 0.5501): 1.4574 ± 0.0004; refractive index ([2]; 303.15 K, x1 = 0.6601): 1.4439 ± 0.0004; refractive index ([2]; 303.15 K, x1 = 0.7601): 1.4325 ± 0.0004; refractive index ([2]; 303.15 K, x1 = 0.8846): 1.4187 ± 0.0004; refractive index ([2]; 303.15 K, x1 = 0.95): 1.4117 ± 0.0004; refractive index ([2]; 308.15 K, x1 = 0.0875): 1.5151 ± 0.0004; refractive index ([2]; 308.15 K, x1 = 0.1478): 1.5068 ± 0.0004; refractive index ([2]; 308.15 K, x1 = 0.2538): 1.4928 ± 0.0004; refractive index ([2]; 308.15 K, x1 = 0.3443): 1.4811 ± 0.0004; refractive index ([2]; 308.15 K, x1 = 0.4591): 1.4671 ± 0.0004; refractive index ([2]; 308.15 K, x1 = 0.5501): 1.456 ± 0.0004; refractive index ([2]; 308.15 K, x1 = 0.6601): 1.4424 ± 0.0004; refractive index ([2]; 308.15 K, x1 = 0.7601): 1.4309 ± 0.0004; refractive index ([2]; 308.15 K, x1 = 0.8846): 1.4167 ± 0.0004; refractive index ([2]; 308.15 K, x1 = 0.95): 1.4095 ± 0.0004; refractive index ([2]; 313.15 K, x1 = 0.0875): 1.5133 ± 0.0004; refractive index ([2]; 313.15 K, x1 = 0.1478): 1.5053 ± 0.0004; refractive index ([2]; 313.15 K, x1 = 0.2538): 1.4912 ± 0.0004; refractive index ([2]; 313.15 K, x1 = 0.3443): 1.4796 ± 0.0004; refractive index ([2]; 313.15 K, x1 = 0.4591): 1.4656 ± 0.0004; refractive index ([2]; 313.15 K, x1 = 0.5501): 1.4544 ± 0.0004; refractive index ([2]; 313.15 K, x1 = 0.6601): 1.4411 ± 0.0004; refractive index ([2]; 313.15 K, x1 = 0.7601): 1.4293 ± 0.0004; refractive index ([2]; 313.15 K, x1 = 0.8846): 1.4154 ± 0.0004; refractive index ([2]; 313.15 K, x1 = 0.95): 1.4079 ± 0.0004
